This is an account of results in patent publication US12336977B2, “Nitenin analogue compounds and their use in the treatment of chronic and acute pain” (SEA4US-BIOTECNOLOGIA E RECURSOS MARINHOS, LDA., priority 2019, dated 2025).

In assay [1] the test system is CCI rats (chronic constriction of the sciatic nerve of Wistar rats). In words: neuropathic pain rat model CCI, von Frey filaments. The assay is classed as in vivo. The source says: FIG. 4 illustrates behavioral readouts as measures of pain during treatment with nitenin on a Neuropatic pain rat model CCI (Chronic constriction injury). Typical experiment using a group of Wistar rats subjected to four unilateral sciatic nerve constrictions. Values refer to the mechanical sensitivity to stimulation using calibrated von Frey Filaments, and consequently reflecting hyperalgesia when hypersensitive (black filled markers—ipsilateral, operated leg; Open markers—contralateral, uninjured leg). Dotted line refers to the average value of the ipsilateral paw prior to surgery. a) Induction of the model showing that 3 days after operation, the mechanical sensitivity of the ipsilateral limb increases markedly, whereas the one associated with the contralateral leg remained unchanged, similar to baseline values. This tendency is maintained during 26 days after surgery, day that treatment with nitenin was performed (circle with dotted line). b) Effect of intravenous injection of nitenin (estimated plasma concentration of 1 μg/ml) on the mechanical sensitivity of the ipsilateral leg. For clarity, the data of the contralateral limb is not shown but it remains unaltered. […]
For efficacy studies, nociception was assessed in all animals from all pain models by regular behavioural monitoring, by quantifying the sensitivity to mechanical stimuli with Von Frey filaments, and consequently reflecting hyperalgesia when hypersensitive. […] Intraperitoneal administration was tested in CFA rats (23 days after CFA injection), with 10 times the nitenin quantity administered by I.V. injections. […]

Assay [2] relates to voltage-activated Na+ currents of sdDRGns. In words: whole-cell voltage-clamp of voltage activated Na+ currents in sdDRGns. The assay is classed as cell-based, rat. As to conditions: 0.1 μg/ml, 0.29 μM (FIG. 1.b). On the procedure:
FIG. 1 illustrates the effect of nitenin (0.1 μg/ml) on voltage activated currents recorded from small diameter Dorsal Root Ganglia neurons (sdDRGns) • a) In sdDRGns, voltage-activated outward potassium (K^+) currents were evoked by a depolarizing step to +20 mV (holding potential of −70 mV) preceded by a hyperpolarizing pre-pulse to −120 mV. […] Typical voltage activated K^+ current traces recorded before and in the presence of nitenin (0.1 μg/ml); lower trace corresponding to the current subtraction, fit with a single-exponential function (time constant τ˜150 ms). ii.
For the electrophysiological recordings of the ex vivo material, voltage-clamp recordings were performed on neurons isolated from rat DRGs (and TGs). Recordings were performed from the soma that often contained the proximal fraction of axon, 1 hour after the end of the cell isolation process (includes enzymatic and mechanical treatment).

Assay [3] concerns Naïve Wistar control rats. In words: naive Wistar controls, von Frey filaments. The assay is classed as in vivo, rat. As to conditions: I.V. injections. On the procedure:
[…]
For efficacy studies, nociception was assessed in all animals from all pain models by regular behavioural monitoring, by quantifying the sensitivity to mechanical stimuli with Von Frey filaments, and consequently reflecting hyperalgesia when hypersensitive. […] Intraperitoneal administration was tested in CFA rats (23 days after CFA injection), with 10 times the nitenin quantity administered by I.V. injections. […] Oral administration of nitenin through stomach gavages (endogastric), with 100 times the quantity administered by I.V. injections, was tested in CCI rats (31 days after surgery). […]

“Also recorded” adds a separate entry of the source.

For the compound `C/C(=C\C1C/C(=C/CCc2ccoc2)C(=O)O1)CCCc1ccoc1` (stereo not drawn) [nitenin], in assay [1] (I.V. 1 μg/mL of blood), the “behavioural scores of the contralateral (uninjured) paw” value is recorded as “no changes”. Further, the “mechanical sensitivity of ipsilateral paw (von Frey)” value in assay [1] (I.V. 1 μg/mL of blood ~0.06 mg/Kg, acute (3 days) and chronic (22 to 31 days)) is reported as “reaching values not different to those obtained during baseline; also recorded: noticeable decrease of sensitivity to mechanical stimuli”. Besides, the “time of maximum effect after injection” value in assay [1] (intravenous, estimated plasma concentration 1 μg/ml, 26 days after surgery) is recorded as roughly 1 h. In addition, the “effect on voltage activated Na+ currents” value in assay [2] is listed as “absence of effect”; in assay [2] (listed as Nitenin) it was “not being able to induce relevant changes”. Moreover, the “sensitivity scores, both paws” value in assay [3] is “never any change in sensitivity scores”.
